From patent US8450336B2, “Use of D-serine derivatives for the treatment of anxiety disorders” (priority 2006, dated 2013)
Several values for one entry are separate records, joined by “and”; a condition that tells them apart may be missing. Equal values may be shown once.

Tests used:
[1] = tested on: Sprague-Dawley rats; assay: Conditioned Emotional Response (CER) assay; format: in vivo; conditions: for Magnitude of the SR effect compared with diazepam: diazepam 2 mg/kg i.p; for Total number lever press: 40 min test session; for Total number lever press / Suppression ratio (SR): mean±SEM; for Suppression ratio (SR): at least 10 rats, *p<0.05 vs vehicle; for Efficacy in the CER assay (effect on SR), in words: rat, in vivo
Method: Male, Sprague-Dawley rats of approximate body weight 350-450 g were placed on a restricted food diet (45 min free access per day) and trained over a 1-2 week period to press a lever for food reward (45 mg food pellet). […] Test session length was for a 40 min test period, and test sessions were run 5 days/week. Once stable response rates were attained, 2 periods of a 2 min light and tone cue (conditioning stimulus, CS) was introduced into the test session. The 2 min CS was terminated by a 0.5 s unavoidable footshock of 0.3-0.8 mA intensity (UCS). The first CS-UCS was at approximately 10 min (range 5-15 min) and the second CS-UCS pairing at approximately 30 min (range 25-35 min) within the test session. On drug test days, and occasional training days, footshock was not delivered. The number of lever presses recorded during the two 2 min CS periods (response A), and the number of lever presses recorded in the 2 min periods immediately prior to the two CS periods (response B) were measured and a suppression ratio (SR) was calculated according to the formula (A/A+B). Thus a SR of 0 reflects no responding during the CS periods, i.e. a complete suppression of lever pressing for food by the CS, and a SR of 0.5 reflects equivalent responding during both the CS and 2 min period prior to CS, i.e. no suppression of lever pressing for food by the CS. Thus in drug untreated animals, SR value was typically 0-0.1 and established anti-anxiety agents such as diazepam increased this value to 0.4-0.5 (for literature examples see Stanhope and Dourish (1996) Psychopharmacol. 128: 293-303; Mirza et al (2005) Psychopharmacol. 180: 159-168). In addition to SR, the total number of lever presses emitted by the animals over the 40 min test session was measured.
Drug testing was conducted according to a repeated measures design, with each animal receiving each dose of drug treatment or vehicle control in a balanced design. Typically drug testing was conducted on Tuesdays and Fridays, with the animals drug untreated but otherwise run for baseline purposes. In each experiment a standard dose of diazepam (2 mg/kg i.p) was included as a positive control.

[2] = tested on: CD-1 mice; assay: Marble Burying Assay; format: in vivo; conditions: for Number of marbles buried: 22 marbles, 30 min, mean±SEM, at least 8 mice
Method: (§1) Male, experimentally naïve CD-1 mice of body weight range 25-35 g were used in these studies. Following a pretreatment with test drug or vehicle control the animals were singly placed within a Perspex chamber of dimension (48 cm×28 cm×20 cm; L×W×H) containing fresh sawdust bedding onto which 22 marbles were evenly spaced on the surface. After a 30 min period, the mice were removed and the number of marbles that were covered by at least ⅔rd by sawdust were counted as buried. Typically mice will bury a significant proportion of the marbles, probably to hide the potential threat posed by the marbles which represent a novel stimulus to the animal. […] One interpretation for this effect is that diazepam reduces the threat perceived to the animal by the close presence of the marbles (Broekkamp et al, 1986 Eur. J. Pharmacol. 126: 223-229; Nicolas et al, 2006 Eur. J. Pharmacol. 547; 106-115). In a separate group of sex, age and weight matched CD-1 mice, equivalent doses of test compound were evaluated on motor function using a fixed speed (16 r.p.m) rotorod assay. The best score from 3 attempts was recorded, with the maximum test duration of 60 s. Testing was conducted at 40 min post injection, i.e. approximate mid-point of the marble-burying assay.
Drug testing was run according to a between subjects design. […] The (S)-enantiomer of Lacosamide was ineffective in this assay.

[3] = tested on: CD-1 mice; assay: Fixed speed (16 r.p.m) rotorod assay of motor function; format: in vivo; conditions: median of at least 4 mice, maximum score=60 s, 40 min post injection
Method: as §1

[4] = tested on: Sprague-Dawley rats; conditions: drug untreated animals typically 0-0.1; literature examples; cited from earlier work
[5] = tested on: CD-1 mice; conditions: at doses with no obvious effect on general motor function; literature; cited from earlier work
[6] = dose 3 (mg/kg), i.p or oral route
[7] = dose 10 (mg/kg), i.p or oral route
[8] = dose 30 (mg/kg), i.p or oral route
[9] = dose 2 (2 mg/kg i.p, positive control), 2 mg/kg

| SMILES | Magnitude of the SR effect compared with diazepam [1] | Total number lever press ([1]; dose 3 (mg/kg)) | Suppression ratio (SR) ([1]; dose 3 (mg/kg)) | Total number lever press ([1]; dose 10 (mg/kg)) | Suppression ratio (SR) ([1]; dose 10 (mg/kg)) | Total number lever press ([1]; dose 30 (mg/kg)) | Suppression ratio (SR) ([1]; dose 30 (mg/kg)) | Efficacy in the CER assay (effect on SR), in words [1] | Number of marbles buried [2, 6] | Number of marbles buried [2, 7] | Number of marbles buried [2, 8] | Efficacy in the marble burying assay, in words ([2]; mouse, in vivo) | Rotorod score ([3]; dose 3) | Rotorod score ([3]; dose 10) | Rotorod score ([3]; dose 30) | melting point | further results |
| --- | --- | --- | --- | --- | --- | --- | --- | --- | --- | --- | --- | --- | --- | --- | --- | --- | --- |
| CC(=O)N[C@H](COC(F)F)C(=O)NCc1ccccc1 [Example 19.1, (2R)-2-(Acetylamino)-N-benzyl-3-(difluoromethoxy)propanamide] | equivalent to diazepam | 1169 ± 145 | 0.16 ± 0.03 | 1093 ± 169 | 0.15 ± 0.05 | 724 ± 135 | 0.38 ± 0.04* | active in increasing the SR in a dose-related manner | 17.0 ± 1.1 | 9.7 ± 2.3 | 2.3 ± 2.0 | active in decreasing marble burying in a dose-related manner | 60 s | 60 s | 13 s | 186.9 °C |  |
| COC[C@H](NC(C)=O)C(=O)NCc1ccccc1 (single isomer, unassigned) [(S)-enantiomer of Lacosamide, reference compound] |  |  |  |  |  | 1403 ± 158 | 0.06 ± 0.03 | ineffective |  |  |  | ineffective |  |  |  |  |  |
| CC(=O)NC(COC(F)F)C(=O)NCc1ccccc1 (stereo not drawn) |  |  |  |  |  |  |  |  |  |  |  |  |  |  |  | 173.3 °C |  |
| COC[C@@H](NC(C)=O)C(=O)NCc1ccccc1 [Lacosamide, (+)-(2R)-2-(acetylamino)-N-benzyl-3-methoxypropanamide, reference compound] | equivalent to diazepam | 1166 ± 185 | 0.16 ± 0.07 | 1121 ± 138 | 0.18 ± 0.08 | 727 ± 123 | 0.36 ± 0.07* |  | 16.8 ± 0.8 | 18.0 ± 0.7 | 12.4 ± 1.4 |  | 60 s | 60 s | 60 s |  | Efficacy in the CER assay (effect on SR value), in words ([1]; doses 3-30 mg/kg i.p.): significantly increasing the SR value; Efficacy in the marble burying assay, in words ([2]; oral doses of 3-30 mg/kg, compared to vehicle pretreated controls): significantly reducing the number of marbles buried |
| CN1C(=O)CN=C(c2ccccc2)c2cc(Cl)ccc21 [Diazepam, reference compound] |  |  |  |  |  |  |  |  | 2.0 ± 0.8 |  |  | produced a similar profile | 40 s |  |  |  | Total number lever press [1, 9]: 899 ± 146 and 1015 ± 155 and 1151 ± 138 and 1239 ± 183; Suppression ratio (SR) [1, 9]: 0.39 ± 0.04* and 0.44 ± 0.03* and 0.32 ± 0.07*; Number of marbles buried ([2]; dose 0.3, i.p or oral route): 12.6 ± 1.4; Number of marbles buried ([2]; dose 1, i.p or oral route): 9.4 ± 1.7; Number of marbles buried ([2]; dose 2, i.p or oral route): 2.2 ± 1.2; Rotorod score ([3]; dose 0.3): 60 s; Rotorod score ([3]; dose 1): 60 s; SR value typically reached with established anti-anxiety agents [4]: 0.4-0.5; Effect of anti-anxiety drugs on marbles buried by mice, in words [5]: reduce the number of marbles buried |
| CC(=O)N[C@H](COC(F)F)C(=O)NCc1ccc(Cl)cc1 [Example 23.1, (2R)-2-(acetylamino)-N-(4-chlorobenzyl)-3-(difluoromethoxy)propanamide] | equivalent to diazepam | 1091 ± 169 | 0.09 ± 0.04 | 1034 ± 131 | 0.17 ± 0.04* | 578 ± 79 | 0.26 ± 0.04* | active in increasing the SR in a dose-related manner | 15.8 ± 0.8 | 12.3 ± 1.2 | 2.0 ± 0.7 | active in decreasing marble burying in a dose-related manner | 60 s | 60 s | 60 s |  |  |
| CC(=O)N[C@H](COC(F)F)C(=O)NCc1ccc(F)cc1 [Example 20.1, (2R)-2-(Acetylamino)-3-(difluoromethoxy)-N-(4-fluorobenzyl)propanamide] | equivalent to diazepam | 1188 ± 95 | 0.17 ± 0.06 | 1170 ± 98 | 0.28 ± 0.07* | 587 ± 84 | 0.43 ± 0.05* | active in increasing the SR in a dose-related manner | 15.0 ± 1.2 | 14.9 ± 0.9 | 10.3 ± 1.5 | active in decreasing marble burying in a dose-related manner | 60 s | 60 s | 60 s | 162.7 °C | Total number lever press ([1]; dose 20 (mg/kg)): 849 ± 78; Suppression ratio (SR) ([1]; dose 20 (mg/kg)): 0.33 ± 0.06* |
